# Reference: US6565891B1, “Nutritional supplement for children” (Tsar Health Private Ltd., priority 2002, dated 2003)
# Tests used:
# Interleukin-2 = experiment: Zinc dose response: interleukin-2; format: in vivo, human; conditions: children age 4-12 years, median (standard deviation)
# Protocol: (§1) The basic concept underlying the assessment of the most optimum nutrient amounts for a given age group uses the principle of“dose-response curves”. At least four groups of individuals were provided with various amounts of a given nutrient and their immune responses were measured using established and accepted techniques. The amount of a nutrient that gave the best response was considered the optimum amount. Dose response curves were determined for all vitamins and trace elements considered essential for human health, particularly immunity.
# (§2) The ratio of radioactivity in the test samples divided by radioactivity in control samples gave the “stimulation response” shown in FIGS. 1 and 2.
# blood lymphocytes = experiment: Zinc dose response: lymphocyte response to PHA (stimulation index); format: in vivo, human; conditions: children age 4-12 years, diet zinc 5 mg, median (standard deviation)
# Protocol: as §1
# Data for the dose response curve for zinc in a group of 4 to 12 year old children is shown in FIGS. 1 and 2, with the total amount of zinc taken is shown for each group. To determine the magnitude of immune response, an aliquot of blood was withdrawn from each subject in the study, blood lymphocytes were separated, washed and mixed with the mitogen phytohemagglutinin (PHA) in previously determined optimum amount. The optimum amount of PHA used in the experiments was predetermined by a set of dose response curves using lymphocytes of a healthy donor and four different concentrations of PHA. After culture in a sterile environment for 72 hours, the cells were washed and mixed with radioactive thymidine. The same steps were undertaken in a control sample in which only the culture medium was used, not PHA. The cells were washed and radioactivity determined.
# as §2
# Thymulin activity = experiment: Zinc dose response: thymulin activity; format: in vivo, human; conditions: children age 4-12 years
# Protocol: as §1, §2
# Antibody response = experiment: Zinc dose response: antibody response; format: in vivo, human; conditions: children age 4-12 years
# Protocol: as §1, §2
# [1] = in vivo; cited from earlier work
Structure (SMILES),Interleukin-2 (Interleukin-2; 7 mg supplemental zinc),Interleukin-2 (Interleukin-2; 20 mg supplemental zinc),Interleukin-2 (Interleukin-2; 50 mg supplemental zinc),Lymphocyte response to PHA (stimulation index) (blood lymphocytes; 7 mg supplemental zinc),Lymphocyte response to PHA (stimulation index) (blood lymphocytes; 20 mg supplemental zinc),Lymphocyte response to PHA (stimulation index) (blood lymphocytes; 50 mg supplemental zinc),Thymulin activity (median reciprocal titre) (Thymulin activity; 7 mg supplemental zinc),Thymulin activity (median reciprocal titre) (Thymulin activity; 20 mg supplemental zinc),Thymulin activity (median reciprocal titre) (Thymulin activity; 50 mg supplemental zinc),Antibody response (median reciprocal titre) (Antibody response; 7 mg supplemental zinc),Antibody response (median reciprocal titre) (Antibody response; 20 mg supplemental zinc),Antibody response (median reciprocal titre) (Antibody response; 50 mg supplemental zinc),biologic half-life in the body [1]
[Zn] [zinc],16(2.0) units/ml,11(1.5) units/ml,8(1.3) units/ml,86(11),54(9),41(8),216,187,166,318,129,73,
Cc1ncc(C[n+]2csc(CCO)c2C)c(N)n1 [Thiamin],,,,,,,,,,,,,about 15 days
